Earlier results in US10265413B2, “High molecular weight biodegradable gelatin-doxorubicin conjugate” (priority 2014, dated 2019).

Conditions: cumulative doses

Structure (SMILES): COc1cccc2c1C(=O)c1c(O)c3c(c(O)c1C2=O)C[C@@](O)(C(=O)CO)C[C@@H]3O[C@H]1C[C@H](N)[C@H](O)[C@H](C)O1 [DOX, (7S,9S)-7-[(2R,4S,5S,6S)-4-amino-5-hydroxy-6-methyloxan-2-yl]oxy-6,9,11-trihydroxy-9-(2-hydroxyacetyl)-4-methoxy-8,10-dihydro-7H-tetracene-5,12-dione]
- cumulative dose above which irreversible cardiomyopathy occurs: > 550 mg/m^2
